{"source": "ChEMBL document CHEMBL4507276", "about": "(2021)", "key": {"[1]": {"molecular_target": "Adenosine receptor A2a (Homo sapiens) (UniProt P29274)", "assay": "A2A/H Cerep selectivity data (BI)", "settings": "filed as antagonist, Compound concentration 20.0 uM; call rule not given here"}, "[2]": {"molecular_target": "Alpha-2B adrenergic receptor (Homo sapiens) (UniProt P18089)", "assay": "ALPHA2BH_ANTAG Cerep selectivity data (BI)", "settings": "filed as antagonist, Compound concentration 20.0 uM"}, "[3]": {"molecular_target": "C-C chemokine receptor type 2 (Homo sapiens) (UniProt P41597)", "assay": "CCR2/H AG Cerep selectivity data (BI)", "settings": "filed as agonist, Compound concentration 20.0 uM"}, "[4]": {"molecular_target": "Prostaglandin G/H synthase 1 (Homo sapiens) (UniProt P23219)", "assay": "COX1_HU Cerep selectivity data (BI)", "settings": "Compound concentration 20.0 uM"}, "[5]": {"molecular_target": "Delta-type opioid receptor (Homo sapiens) (UniProt P41143)", "assay": "DELTA2/H Cerep selectivity data (BI)", "settings": "Compound concentration 20.0 uM"}, "[6]": {"molecular_target": "Tumor necrosis factor (Homo sapiens) (UniProt P01375)", "assay": "TNFALPHA/H Cerep selectivity data (BI)", "settings": "Compound concentration 20.0 uM"}, "[7]": {"molecular_target": "L-type Ca2+ channel (DHP site), Cav1.2 alpha-1C (Rattus norvegicus, UniProt P22002)", "sequence (P22002 whole entry)": "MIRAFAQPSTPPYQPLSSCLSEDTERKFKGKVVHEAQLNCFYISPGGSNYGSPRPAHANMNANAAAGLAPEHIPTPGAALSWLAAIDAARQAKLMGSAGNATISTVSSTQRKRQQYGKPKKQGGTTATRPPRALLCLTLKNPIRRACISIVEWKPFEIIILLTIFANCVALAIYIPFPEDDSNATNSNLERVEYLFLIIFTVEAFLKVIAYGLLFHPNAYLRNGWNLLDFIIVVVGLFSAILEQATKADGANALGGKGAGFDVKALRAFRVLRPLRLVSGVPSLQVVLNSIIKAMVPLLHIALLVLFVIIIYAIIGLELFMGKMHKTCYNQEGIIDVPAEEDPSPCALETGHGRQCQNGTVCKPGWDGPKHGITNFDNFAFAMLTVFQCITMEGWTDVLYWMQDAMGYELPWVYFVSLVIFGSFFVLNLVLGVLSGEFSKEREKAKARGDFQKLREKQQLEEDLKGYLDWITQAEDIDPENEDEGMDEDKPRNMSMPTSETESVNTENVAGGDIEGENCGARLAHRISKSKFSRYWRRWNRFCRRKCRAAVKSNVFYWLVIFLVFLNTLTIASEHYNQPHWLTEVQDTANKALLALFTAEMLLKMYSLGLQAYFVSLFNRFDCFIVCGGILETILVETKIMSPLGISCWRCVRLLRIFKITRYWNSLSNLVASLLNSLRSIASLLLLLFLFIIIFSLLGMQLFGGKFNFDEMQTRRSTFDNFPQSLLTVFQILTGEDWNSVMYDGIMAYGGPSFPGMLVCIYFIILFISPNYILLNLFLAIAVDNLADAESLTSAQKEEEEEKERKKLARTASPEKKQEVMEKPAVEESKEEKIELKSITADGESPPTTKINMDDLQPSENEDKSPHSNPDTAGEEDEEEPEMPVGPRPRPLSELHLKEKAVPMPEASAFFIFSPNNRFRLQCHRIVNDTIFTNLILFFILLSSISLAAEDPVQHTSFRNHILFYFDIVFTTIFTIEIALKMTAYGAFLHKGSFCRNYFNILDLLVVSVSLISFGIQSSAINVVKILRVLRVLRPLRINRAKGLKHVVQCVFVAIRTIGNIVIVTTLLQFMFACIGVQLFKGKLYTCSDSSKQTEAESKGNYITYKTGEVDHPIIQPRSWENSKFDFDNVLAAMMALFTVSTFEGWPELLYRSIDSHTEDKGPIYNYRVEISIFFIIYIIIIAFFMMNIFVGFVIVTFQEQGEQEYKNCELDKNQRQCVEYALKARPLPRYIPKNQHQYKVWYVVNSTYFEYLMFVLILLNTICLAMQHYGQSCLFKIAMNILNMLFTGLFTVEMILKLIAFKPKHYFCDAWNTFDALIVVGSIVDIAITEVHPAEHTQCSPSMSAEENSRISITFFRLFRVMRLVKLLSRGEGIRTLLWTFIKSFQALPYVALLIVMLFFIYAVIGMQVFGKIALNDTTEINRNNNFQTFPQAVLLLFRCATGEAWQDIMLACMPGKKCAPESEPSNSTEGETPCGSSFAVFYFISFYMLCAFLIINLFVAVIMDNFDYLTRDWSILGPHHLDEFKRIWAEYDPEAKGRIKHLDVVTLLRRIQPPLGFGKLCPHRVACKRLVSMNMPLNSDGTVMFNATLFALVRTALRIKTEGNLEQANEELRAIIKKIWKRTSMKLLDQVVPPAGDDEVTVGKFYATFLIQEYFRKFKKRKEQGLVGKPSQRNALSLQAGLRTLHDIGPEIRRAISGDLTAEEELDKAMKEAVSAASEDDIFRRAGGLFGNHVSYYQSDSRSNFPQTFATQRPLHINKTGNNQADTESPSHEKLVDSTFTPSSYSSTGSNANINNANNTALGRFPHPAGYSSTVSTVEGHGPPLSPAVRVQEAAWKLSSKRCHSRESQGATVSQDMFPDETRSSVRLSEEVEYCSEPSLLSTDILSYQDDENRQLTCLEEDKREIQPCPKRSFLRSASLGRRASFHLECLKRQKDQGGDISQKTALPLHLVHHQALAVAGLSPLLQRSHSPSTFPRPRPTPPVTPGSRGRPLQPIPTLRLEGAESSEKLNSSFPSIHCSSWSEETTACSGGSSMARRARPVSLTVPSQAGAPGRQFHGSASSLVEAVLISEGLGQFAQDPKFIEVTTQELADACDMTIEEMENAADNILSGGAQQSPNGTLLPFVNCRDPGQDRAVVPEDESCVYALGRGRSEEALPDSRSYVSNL", "assay": "CA+/DHPSI/RA Eurofins-Panlabs selectivity data (BI)", "settings": "compound concentration 10 uM, read-out: % Ctrl"}, "[8]": {"molecular_target": "Estrogen receptor (Homo sapiens) (UniProt P03372)", "assay": "ERALPHA/H Eurofins-Panlabs selectivity data (BI)", "settings": "Compound concentration 10.0 uM"}, "[9]": {"molecular_target": "Serine/threonine-protein kinase MRCK beta (Homo sapiens) (UniProt Q9Y5S2)", "assay": "CDC42 BPB Invitrogen selectivity data (BI)", "settings": "Compound concentration 3.0 uM"}, "[10]": {"molecular_target": "T1, Serine/threonine-protein kinase DCLK2 (Homo sapiens) (UniProt Q8N568)", "T1 sequence (whole entry)": "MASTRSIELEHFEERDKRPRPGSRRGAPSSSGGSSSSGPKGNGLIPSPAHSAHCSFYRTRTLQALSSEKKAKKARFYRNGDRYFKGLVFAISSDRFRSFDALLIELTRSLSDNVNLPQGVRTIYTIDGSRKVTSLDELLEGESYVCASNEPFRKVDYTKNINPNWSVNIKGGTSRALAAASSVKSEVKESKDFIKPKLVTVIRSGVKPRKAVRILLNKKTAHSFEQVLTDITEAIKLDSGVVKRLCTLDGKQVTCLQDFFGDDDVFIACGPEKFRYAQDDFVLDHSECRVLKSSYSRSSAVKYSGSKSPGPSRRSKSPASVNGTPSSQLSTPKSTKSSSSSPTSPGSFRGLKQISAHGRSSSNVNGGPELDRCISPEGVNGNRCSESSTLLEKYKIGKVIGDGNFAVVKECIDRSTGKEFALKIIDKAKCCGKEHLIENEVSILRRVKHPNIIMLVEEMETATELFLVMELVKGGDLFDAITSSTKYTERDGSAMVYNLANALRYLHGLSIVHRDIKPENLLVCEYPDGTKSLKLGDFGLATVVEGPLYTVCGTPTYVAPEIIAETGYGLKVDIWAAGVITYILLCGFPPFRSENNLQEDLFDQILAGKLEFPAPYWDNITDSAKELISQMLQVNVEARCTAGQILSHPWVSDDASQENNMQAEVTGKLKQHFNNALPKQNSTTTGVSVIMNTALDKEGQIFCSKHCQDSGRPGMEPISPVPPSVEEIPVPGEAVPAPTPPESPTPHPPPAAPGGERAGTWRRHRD", "assay": "DCAMKL2 Invitrogen selectivity data (BI)", "settings": "Compound concentration 3.0 uM"}, "[11]": {"molecular_target": "Ephrin type-A receptor 4 (Homo sapiens) (UniProt P54764)", "sequence (P54764 whole entry)": "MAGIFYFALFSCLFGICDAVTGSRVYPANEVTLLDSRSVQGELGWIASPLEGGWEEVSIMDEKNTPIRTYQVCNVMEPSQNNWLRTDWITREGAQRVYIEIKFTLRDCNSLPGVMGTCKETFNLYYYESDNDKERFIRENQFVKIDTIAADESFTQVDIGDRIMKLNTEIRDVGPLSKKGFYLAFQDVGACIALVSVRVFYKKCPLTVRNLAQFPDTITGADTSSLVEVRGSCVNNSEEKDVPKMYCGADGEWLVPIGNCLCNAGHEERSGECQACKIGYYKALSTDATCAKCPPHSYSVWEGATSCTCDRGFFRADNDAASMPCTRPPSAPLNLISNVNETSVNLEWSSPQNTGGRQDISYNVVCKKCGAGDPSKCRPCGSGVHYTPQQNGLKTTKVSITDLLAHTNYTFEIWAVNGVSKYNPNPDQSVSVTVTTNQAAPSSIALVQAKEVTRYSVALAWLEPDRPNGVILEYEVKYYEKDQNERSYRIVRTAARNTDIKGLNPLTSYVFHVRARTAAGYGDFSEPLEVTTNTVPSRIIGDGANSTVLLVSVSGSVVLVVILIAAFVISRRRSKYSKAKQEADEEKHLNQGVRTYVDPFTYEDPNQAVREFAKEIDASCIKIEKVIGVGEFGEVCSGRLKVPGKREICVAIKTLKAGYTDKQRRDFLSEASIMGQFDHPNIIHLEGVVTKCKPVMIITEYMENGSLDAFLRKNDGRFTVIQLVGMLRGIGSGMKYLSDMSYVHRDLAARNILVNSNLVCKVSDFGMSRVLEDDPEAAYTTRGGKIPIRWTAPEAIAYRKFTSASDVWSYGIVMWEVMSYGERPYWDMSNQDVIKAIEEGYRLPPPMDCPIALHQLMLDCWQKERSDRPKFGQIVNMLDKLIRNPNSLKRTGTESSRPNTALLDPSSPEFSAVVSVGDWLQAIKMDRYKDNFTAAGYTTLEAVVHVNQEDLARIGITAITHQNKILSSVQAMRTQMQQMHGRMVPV", "assay": "EPHA4 Invitrogen selectivity data (BI)", "settings": "Compound concentration 3.0 uM"}, "[12]": {"molecular_target": "Mast/stem cell growth factor receptor Kit (Homo sapiens) (UniProt P10721)", "sequence (P10721 whole entry)": "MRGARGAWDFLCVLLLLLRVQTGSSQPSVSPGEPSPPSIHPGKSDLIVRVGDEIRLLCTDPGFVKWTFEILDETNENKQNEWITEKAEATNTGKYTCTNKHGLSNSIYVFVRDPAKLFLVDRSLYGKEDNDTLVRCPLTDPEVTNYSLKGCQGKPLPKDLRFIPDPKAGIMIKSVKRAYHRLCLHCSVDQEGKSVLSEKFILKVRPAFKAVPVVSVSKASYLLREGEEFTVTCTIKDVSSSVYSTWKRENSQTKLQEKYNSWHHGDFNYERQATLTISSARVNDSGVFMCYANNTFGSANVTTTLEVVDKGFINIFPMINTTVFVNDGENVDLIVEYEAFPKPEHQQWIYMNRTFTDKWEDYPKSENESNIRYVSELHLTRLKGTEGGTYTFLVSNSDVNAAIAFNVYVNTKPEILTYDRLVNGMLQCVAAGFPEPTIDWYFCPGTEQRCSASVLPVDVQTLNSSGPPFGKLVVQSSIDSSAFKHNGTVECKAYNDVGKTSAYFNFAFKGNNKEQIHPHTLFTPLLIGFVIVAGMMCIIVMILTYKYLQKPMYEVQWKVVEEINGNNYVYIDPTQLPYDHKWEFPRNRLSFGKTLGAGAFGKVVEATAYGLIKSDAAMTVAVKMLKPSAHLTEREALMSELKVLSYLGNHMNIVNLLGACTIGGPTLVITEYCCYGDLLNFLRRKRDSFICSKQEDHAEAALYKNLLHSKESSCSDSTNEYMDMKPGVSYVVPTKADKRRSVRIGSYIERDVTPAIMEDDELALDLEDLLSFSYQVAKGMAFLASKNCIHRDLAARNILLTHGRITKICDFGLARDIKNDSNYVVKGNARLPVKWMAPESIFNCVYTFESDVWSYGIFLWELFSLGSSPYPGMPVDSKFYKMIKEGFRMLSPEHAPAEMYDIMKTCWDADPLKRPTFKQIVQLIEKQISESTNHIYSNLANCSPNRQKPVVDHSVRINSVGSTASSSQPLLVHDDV", "assay": "KIT Invitrogen selectivity data (BI)", "settings": "Compound concentration 3.0 uM"}, "[13]": {"molecular_target": "Tyrosine-protein kinase Lyn (Homo sapiens) (UniProt P07948)", "assay": "LYN A Invitrogen selectivity data (BI)", "settings": "Compound concentration 3.0 uM"}, "[14]": {"molecular_target": "Ribosomal protein S6 kinase alpha-4 (Homo sapiens) (UniProt O75676)", "assay": "RPS6KA4 Invitrogen selectivity data (BI)", "settings": "Compound concentration 3.0 uM"}, "[15]": {"molecular_target": "Testis-specific serine/threonine-protein kinase 2 (Homo sapiens) (UniProt Q96PF2)", "sequence (Q96PF2 whole entry)": "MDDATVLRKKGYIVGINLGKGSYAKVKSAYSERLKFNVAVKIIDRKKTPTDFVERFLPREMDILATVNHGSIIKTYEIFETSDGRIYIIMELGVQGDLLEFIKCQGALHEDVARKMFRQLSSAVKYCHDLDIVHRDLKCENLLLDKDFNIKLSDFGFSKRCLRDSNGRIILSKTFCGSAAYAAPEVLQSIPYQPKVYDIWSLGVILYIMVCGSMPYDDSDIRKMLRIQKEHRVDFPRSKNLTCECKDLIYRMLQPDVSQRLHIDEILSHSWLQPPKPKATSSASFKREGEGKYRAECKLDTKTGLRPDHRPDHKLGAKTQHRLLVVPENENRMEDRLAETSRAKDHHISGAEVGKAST", "assay": "STK22B Invitrogen selectivity data (BI)", "settings": "Compound concentration 3.0 uM"}, "[16]": {"molecular_target": "Serine/threonine-protein kinase 24 (Homo sapiens) (UniProt Q9Y6E0)", "sequence (Q9Y6E0 whole entry, looked up)": "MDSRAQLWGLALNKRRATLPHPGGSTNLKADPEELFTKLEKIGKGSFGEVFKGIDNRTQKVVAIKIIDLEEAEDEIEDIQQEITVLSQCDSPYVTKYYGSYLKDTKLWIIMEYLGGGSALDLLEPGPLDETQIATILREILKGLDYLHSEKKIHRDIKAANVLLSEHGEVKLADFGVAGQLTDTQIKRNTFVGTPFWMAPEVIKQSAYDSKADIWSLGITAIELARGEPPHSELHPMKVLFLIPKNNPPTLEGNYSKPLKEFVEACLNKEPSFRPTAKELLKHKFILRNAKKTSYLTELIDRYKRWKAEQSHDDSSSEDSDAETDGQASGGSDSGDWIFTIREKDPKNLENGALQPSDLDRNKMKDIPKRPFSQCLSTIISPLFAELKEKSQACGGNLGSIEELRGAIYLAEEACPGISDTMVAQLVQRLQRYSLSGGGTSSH", "assay": "STK24 Invitrogen selectivity data (BI)", "settings": "Compound concentration 3.0 uM"}, "[17]": {"molecular_target": "T2, Serine/threonine-protein kinase TAO3 (Homo sapiens) (UniProt Q9H2K8)", "T2 sequence (whole entry)": "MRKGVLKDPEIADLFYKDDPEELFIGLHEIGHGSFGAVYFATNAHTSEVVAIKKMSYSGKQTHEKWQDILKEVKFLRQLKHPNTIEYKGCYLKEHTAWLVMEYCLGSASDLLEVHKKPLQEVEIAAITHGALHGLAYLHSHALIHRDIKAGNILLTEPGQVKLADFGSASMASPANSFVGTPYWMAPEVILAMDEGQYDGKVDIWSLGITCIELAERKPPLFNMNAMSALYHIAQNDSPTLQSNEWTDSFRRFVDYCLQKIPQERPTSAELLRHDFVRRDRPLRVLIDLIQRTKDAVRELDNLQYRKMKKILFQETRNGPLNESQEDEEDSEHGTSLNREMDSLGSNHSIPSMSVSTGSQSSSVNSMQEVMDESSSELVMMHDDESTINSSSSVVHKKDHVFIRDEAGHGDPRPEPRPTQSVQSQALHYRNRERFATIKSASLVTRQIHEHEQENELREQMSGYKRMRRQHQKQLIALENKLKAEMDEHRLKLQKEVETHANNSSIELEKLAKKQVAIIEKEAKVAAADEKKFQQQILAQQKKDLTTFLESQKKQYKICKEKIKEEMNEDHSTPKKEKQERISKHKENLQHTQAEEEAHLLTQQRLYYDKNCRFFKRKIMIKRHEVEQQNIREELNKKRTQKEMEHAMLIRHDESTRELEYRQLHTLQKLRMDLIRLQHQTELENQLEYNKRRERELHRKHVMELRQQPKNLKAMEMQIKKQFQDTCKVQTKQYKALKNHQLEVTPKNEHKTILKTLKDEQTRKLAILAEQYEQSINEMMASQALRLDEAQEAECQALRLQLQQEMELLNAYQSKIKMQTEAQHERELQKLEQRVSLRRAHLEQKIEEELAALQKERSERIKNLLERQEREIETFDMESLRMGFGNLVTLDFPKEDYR", "assay": "TAOK3 Invitrogen selectivity data (BI)", "settings": "Compound concentration 3.0 uM"}, "[18]": {"molecular_target": "5-hydroxytryptamine receptor 2B (Homo sapiens) (UniProt P41595)", "settings": "Compound concentration 10.0 uM"}}, "data": [{"smiles": "CN(C)C(=O)Cn1cc(-c2nc([C@@](C)(c3ccc(-c4cnc(N)nc4)cc3)C3CC3)no2)cn1", "note": "[BI 665915]", "values": [{"measurement": "residual activity", "setting": "[1]", "value": 97, "unit": "%"}, {"measurement": "residual activity", "setting": "[2]", "value": 100, "unit": "%"}, {"measurement": "residual activity", "setting": "[3]", "value": 109, "unit": "%"}, {"measurement": "residual activity", "setting": "[4]", "value": 62, "unit": "%"}, {"measurement": "residual activity", "setting": "[5]", "value": 100, "unit": "%"}, {"measurement": "residual activity", "setting": "[6]", "value": 87, "unit": "%"}, {"measurement": "activity at 10 µM", "setting": "[7]", "value": "98% (not active)"}, {"measurement": "residual activity", "setting": "[8]", "value": 85, "unit": "%"}, {"measurement": "residual activity", "setting": "[9]", "value": 94, "unit": "%"}, {"measurement": "residual activity", "setting": "[10]", "value": 97, "unit": "%"}, {"measurement": "residual activity", "setting": "[11]", "value": 95, "unit": "%"}, {"measurement": "residual activity", "setting": "[12]", "value": 85, "unit": "%"}, {"measurement": "residual activity", "setting": "[13]", "value": 93, "unit": "%"}, {"measurement": "residual activity", "setting": "[14]", "value": 103, "unit": "%"}, {"measurement": "residual activity", "setting": "[15]", "value": 93, "unit": "%"}, {"measurement": "residual activity", "setting": "[16]", "value": 100, "unit": "%"}, {"measurement": "residual activity", "setting": "[17]", "value": 104, "unit": "%"}, {"measurement": "inhibition", "setting": "[18]", "value": -5.4, "unit": "%"}]}]}
